Assay results reported in ChEMBL document CHEMBL1201862, “PubChem BioAssay data set” (2004).
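Five concentrations, 48 hours, 96-well plates. At the GI50, growth is halved.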 Active and inactive are the calls of the source. No stated cut-off is given here; in the data, active = GI50 up to about 1.1 µM and inactive = higher.

Legend:
Test in all cases: inhibition of tumour cell growth, NCI panel, 48 h
RXF 393 = test system: RXF 393
CCRF-CEM = test system: CCRF-CEM
EKVX = test system: EKVX
BT-549 = test system: BT-549
SNB-75 = test system: SNB-75
SF-539 = test system: SF-539
RPMI-8226 = test system: RPMI-8226
HOP-62 = test system: HOP-62
HCC 2998 = test system: HCC 2998
UACC-257 = test system: UACC-257
MDA-MB-435 = test system: MDA-MB-435
DU-145 = test system: DU-145
KM12 = test system: KM12
CAKI-1 = test system: CAKI-1
NCI/ADR-RES = test system: NCI/ADR-RES
NCI-H522 = test system: NCI-H522
HT-29 = test system: HT-29
SNB-19 = test system: SNB-19
COLO 205 = test system: COLO 205

Measured: GI50

CN(C)c1ccc(/C=C(\C#N)c2nc(-c3cc4ccccc4oc3=O)cs2)cc1
inactive: RXF 393 12.3 µM | CCRF-CEM > 50 µM | EKVX > 50 µM | BT-549 1.73 µM | SNB-75 1.72 µM | SF-539 8.89 µM | RPMI-8226 > 50 µM | HOP-62 5.93 µM | HCC 2998 > 50 µM | UACC-257 > 50 µM | MDA-MB-435 > 50 µM | DU-145 > 50 µM | KM12 > 50 µM | CAKI-1 > 50 µM | NCI/ADR-RES 35.5 µM | NCI-H522 6.75 µM | HT-29 > 50 µM | SNB-19 13.2 µM | COLO 205 > 50 µM

COc1cc(C(=O)O)c([N+](=O)[O-])c(OC)c1OC
inactive: RXF 393 > 100 µM | EKVX > 100 µM | BT-549 > 100 µM | SNB-75 > 100 µM | SF-539 > 100 µM | RPMI-8226 > 100 µM | HOP-62 > 100 µM | HCC 2998 > 100 µM | UACC-257 > 100 µM | MDA-MB-435 > 100 µM | DU-145 > 100 µM | KM12 > 100 µM | CAKI-1 > 100 µM | NCI/ADR-RES > 100 µM | NCI-H522 > 100 µM | HT-29 > 100 µM | SNB-19 > 100 µM | COLO 205 > 100 µM

COc1ccc(N2C(=O)C3c4[nH]c5ccc(OCc6ccccc6)cc5c4C4CCC(C(C)C)CC4C3C2=O)cc1 (stereo not drawn)
inactive: RXF 393 13.4 µM | CCRF-CEM 12.6 µM | EKVX 11 µM | BT-549 28.6 µM | SNB-75 2.23 µM | SF-539 6.03 µM | RPMI-8226 > 72.6 µM | HOP-62 8.63 µM | HCC 2998 > 100 µM | UACC-257 > 100 µM | MDA-MB-435 > 100 µM | DU-145 > 100 µM | KM12 > 100 µM | CAKI-1 > 30.7 µM | NCI/ADR-RES 30.2 µM | NCI-H522 12.3 µM | HT-29 > 100 µM | SNB-19 9.33 µM | COLO 205 > 100 µM

CNC(=O)OCc1nc(N=[N+]=[N-])n(C)c1COC(=O)NC
inactive: RXF 393 21.7 µM | CCRF-CEM 32.1 µM | EKVX > 100 µM | BT-549 > 10 µM | SNB-75 49 µM | SF-539 54.5 µM | RPMI-8226 28.6 µM | HOP-62 52.7 µM | HCC 2998 38.4 µM | UACC-257 > 100 µM | MDA-MB-435 37.2 µM | DU-145 49.8 µM | KM12 69.8 µM | CAKI-1 20.7 µM | NCI/ADR-RES 69.8 µM | NCI-H522 19.5 µM | HT-29 58.3 µM | COLO 205 32.8 µM

O=C1CC(CC(OCc2ccccc2)C(COCc2ccccc2)OCc2ccccc2)CC(=O)N1 (stereo not drawn)
inactive: RXF 393 30.1 µM | CCRF-CEM 37.1 µM | EKVX 19.7 µM | BT-549 13 µM | SNB-75 52.7 µM | SF-539 60.3 µM | RPMI-8226 34.5 µM | HOP-62 39.8 µM | HCC 2998 36.6 µM | UACC-257 27.4 µM | MDA-MB-435 29.6 µM | DU-145 69.3 µM | KM12 37.9 µM | CAKI-1 19.7 µM | NCI/ADR-RES 24.7 µM | NCI-H522 23.7 µM | HT-29 24.7 µM | COLO 205 19.2 µM

Cc1ccc(/C(C#N)=C/c2cccc([N+](=O)[O-])c2)cc1
inactive: RXF 393 19.3 µM | EKVX 29.5 µM | BT-549 > 100 µM | SNB-75 19.5 µM | SF-539 46.5 µM | RPMI-8226 > 100 µM | HOP-62 38.1 µM | HCC 2998 > 100 µM | UACC-257 > 100 µM | MDA-MB-435 > 100 µM | DU-145 98.6 µM | KM12 > 100 µM | CAKI-1 > 100 µM | NCI/ADR-RES > 100 µM | NCI-H522 > 100 µM | HT-29 > 100 µM | SNB-19 43.8 µM | COLO 205 > 100 µM

c1ccc2c(c1)Oc1cccc3cccc-2c13
inactive: RXF 393 > 100 µM | CCRF-CEM > 100 µM | EKVX > 100 µM | BT-549 > 100 µM | SNB-75 > 100 µM | SF-539 > 100 µM | RPMI-8226 > 100 µM | HOP-62 > 100 µM | HCC 2998 > 100 µM | UACC-257 > 100 µM | MDA-MB-435 > 100 µM | DU-145 > 100 µM | KM12 > 100 µM | CAKI-1 > 100 µM | NCI/ADR-RES > 100 µM | NCI-H522 > 100 µM | HT-29 > 100 µM | SNB-19 > 100 µM | COLO 205 > 100 µM

O=CN1CCN(C(=O)c2ccc(Cl)cc2Cl)C1=S
inactive: RXF 393 29.3 µM | CCRF-CEM 27.5 µM | EKVX > 100 µM | BT-549 > 100 µM | SNB-75 21 µM | SF-539 > 100 µM | RPMI-8226 20.5 µM | HOP-62 > 100 µM | HCC 2998 > 100 µM | UACC-257 > 100 µM | MDA-MB-435 43.9 µM | DU-145 84.5 µM | KM12 43.2 µM | CAKI-1 41.1 µM | NCI/ADR-RES > 100 µM | NCI-H522 20.3 µM | HT-29 > 100 µM | SNB-19 > 100 µM | COLO 205 > 100 µM
